Laboratory results from ChEMBL document CHEMBL4177767, “Discovery of N2-(4-Amino-cyclohexyl)-9-cyclopentyl- N6-(4-morpholin-4-ylmethyl-phenyl)- 9H-purine-2,6-diamine as a Potent FLT3 Kinase Inhibitor for Acute Myeloid Leukemia with FLT3 Mutations” (J Med Chem, 2018).

What was measured:
[1] = biological target: Receptor-type tyrosine-protein kinase FLT3 (Homo sapiens, UniProt P36888, ITD); experiment: biochemical; format: cell-based, Sf9
Description: Inhibition of N-terminal GST/His6-fused recombinant human FLT3 (R571 to S993 residues) ITD mutant expressed in Sf9 insect cells using poly (Ala,Glu,Lys,Tyr) 6:2:5:1 hydrobromide as substrate in presence of [gamma-33P]ATP

MV4-11 = experiment: Growth inhibition of human MV4-11 cells after 72 hrs by calcein AM dye-based fluorescence assay; format: functional; details: MV4-11, 72 h
[2] = biological target: T1, Receptor-type tyrosine-protein kinase FLT3 (Homo sapiens, UniProt P36888); experiment: biochemical; format: cell-based, Sf9
T1 sequence (P36888 whole entry): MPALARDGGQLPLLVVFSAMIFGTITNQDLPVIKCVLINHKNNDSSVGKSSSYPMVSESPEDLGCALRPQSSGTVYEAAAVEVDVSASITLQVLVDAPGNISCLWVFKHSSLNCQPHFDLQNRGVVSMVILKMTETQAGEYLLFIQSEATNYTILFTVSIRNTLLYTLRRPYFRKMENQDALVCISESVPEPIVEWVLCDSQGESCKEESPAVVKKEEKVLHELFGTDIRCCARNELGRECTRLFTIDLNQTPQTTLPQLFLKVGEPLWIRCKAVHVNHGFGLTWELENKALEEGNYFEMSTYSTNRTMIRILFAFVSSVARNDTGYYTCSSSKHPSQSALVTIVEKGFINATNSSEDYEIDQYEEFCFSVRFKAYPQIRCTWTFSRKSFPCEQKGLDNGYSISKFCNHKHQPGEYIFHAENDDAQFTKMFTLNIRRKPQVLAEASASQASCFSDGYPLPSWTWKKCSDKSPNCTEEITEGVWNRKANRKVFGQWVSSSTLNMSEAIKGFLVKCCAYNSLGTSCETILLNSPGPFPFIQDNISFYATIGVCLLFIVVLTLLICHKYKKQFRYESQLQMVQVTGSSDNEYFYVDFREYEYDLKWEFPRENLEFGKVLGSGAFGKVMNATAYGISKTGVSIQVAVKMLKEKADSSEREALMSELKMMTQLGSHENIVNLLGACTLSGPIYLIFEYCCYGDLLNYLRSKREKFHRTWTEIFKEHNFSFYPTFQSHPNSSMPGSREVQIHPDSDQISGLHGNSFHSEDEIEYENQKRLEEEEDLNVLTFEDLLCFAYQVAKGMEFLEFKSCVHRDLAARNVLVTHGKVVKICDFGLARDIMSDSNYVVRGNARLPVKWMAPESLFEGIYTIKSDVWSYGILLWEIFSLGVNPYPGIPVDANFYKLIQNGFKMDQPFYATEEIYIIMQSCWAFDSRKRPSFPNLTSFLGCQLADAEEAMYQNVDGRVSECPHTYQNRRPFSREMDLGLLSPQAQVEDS
Description: Inhibition of N-terminal GST/His6-fused recombinant wild type human FLT3 (R571 to S993 residues) expressed in Sf9 insect cells using poly (Ala,Glu,Lys,Tyr) 6:2:5:1 hydrobromide as substrate in presence of [gamma-33P]ATP

[3] = biological target: Receptor-type tyrosine-protein kinase FLT3 (Homo sapiens, UniProt P36888, D835Y); experiment: biochemical; format: cell-based, Sf9
Description: Inhibition of N-terminal GST/His6-fused recombinant human FLT3 (R571 to S993 residues) D835Y mutant expressed in Sf9 insect cells using poly (Ala,Glu,Lys,Tyr) 6:2:5:1 hydrobromide as substrate in presence of [gamma-33P]ATP

K562 = experiment: cells; details: Homo sapiens, K562, 72 h
MOLM-13 = experiment: cells; details: Homo sapiens, MOLM-13, 72 h
Kasumi 1 = experiment: cells; details: Homo sapiens, Kasumi 1, 72 h
THP-1 = experiment: cells; details: Homo sapiens, THP-1, 72 h
U-937 = experiment: cells; details: Homo sapiens, U-937, 72 h
MCF7 = experiment: cells; details: Homo sapiens, MCF7, 72 h
HCC827 = experiment: cells; details: Homo sapiens, HCC827, 72 h
in vitro [4] = details: human, MRC5 cells
in vitro [5] = details: human, HUVEC
in vitro [6] = details: human, BJ cells

IC50 [1]	GI50 (MV4-11)	IC50 [2]	IC50 [3]	GI50 (K562)	GI50 (MOLM-13)	GI50 (THP-1)	GI50 (U-937)	GI50 (MCF7)	GI50 (HCC827)	GI50 at 72 h (in vitro [4])	GI50 at 72 h (in vitro [5])	GI50 at 72 h (in vitro [6])	Structure (SMILES)	GI50 (Kasumi 1)
0.004 µM	0.01 µM	0.016 µM	0.004 µM	0.67 µM	0.015 µM	2.28 µM	1.8 µM	0.52 µM	1.28 µM	20.6 µM	10.1 µM	14.7 µM	N[C@H]1CC[C@H](Nc2nc(Nc3ccc(Br)cc3)c3ncn(C4CCCC4)c3n2)CC1	0.481 µM
0.026 µM	0.196 µM	0.083 µM	0.624 µM	3.6 µM	0.122 µM	> 10 µM	9.79 µM	8.6 µM	> 5 µM	23.9 µM	10.1 µM	> 25 µM	c1ccc(CNc2nc(Nc3ccc(CN4CCOCC4)cc3)c3ncn(C4CCCC4)c3n2)cc1	4.76 µM
